Here are results for 5 molecules from patent US7989446B2, “4-amino 5-cyanopyrimidine derivatives” (Otsuka Pharmaceutical Co., Ltd., priority 2004, dated 2011).

The target in experiment [1] is T1, adenosine A2a receptor (Human) (Homo sapiens, UniProt P29274).
T1 construct: host or cells: HEK293
The experiment can be described thus: c-AMP generating action in cell expressing adenosine A2a receptor. Particulars: HEK293 cell expressing human A2a; 100% = c-AMP caused by 1 μM CGS-21680; read-out: A2a Agonistic Action (EC50). In kind it is cell-based. How it is done: (1) c-AMP Generating Action in Cell Expressing Adenosine A2a Receptor
The test was carried out as mentioned below with reference to the method disclosed in the reference (Klotz k. N. et al., Naunyn-Schmiedeberg's Arch. Pharmacol., (1998) 357, 1-9; Shryock J. C. et al., Molecular Pharmacology, (1998) 53, 886-893).
As to the cell, HEK293 cell expressing adenosine A2a receptor (Human) (PerkinElmer Life Sciences, Code No. RBHA2AC) was used.
As to the culture medium, Dulbecco's modified Eagles medium (DMEM) including 10% FBS (Fetal bovine serum) and 1 mM of sodium pyruvate was used.
The cell was placed on 96 well plate (1×10^5/well), and cultured overnight. After removing off the supernatant, to each well, 0.1 ml of DMEM (without FBS) containing 20 mM HEPES, 0.1 mM of IBMX (3-isobutyl-1-methylxanthine) and 2 unit/mL adenosine deaminase was added, and they were incubated at 37° C. for 30 minutes. To each well, 0.1 ml of the culture medium including the DMSO solution of the test compound in an appropriate concentration was added and they were incubated for additional 30 minutes. After removing off the supernatant, the cytolytic solution was added to quench the reaction. The amount of c-AMP in each well was measured by using the c-AMP enzyme immunoassay (EIA) system (Amersham Biosciences, Code No. RPN225).
The same assay was repeated using CGS-21680 (2-p-carboxyethyl)phenethylamino-5′-N-ethylcarboxamidoadenosine hydrochloride, (Sigma, code C141) as reference compound. The amount of resultant c-AMP in the medium, caused by 1 μM of reference compound, was defined to be 100%. A concentration of assayed compound in the medium, producing 50% c-AMP amounts, was calculated to be EC50 value.

Experiment [2] relates to Intraocular Pressure in Rabbit. The experiment can be described thus: Measuring test for intraocular pressure in rabbit. Type of experiment: in vivo, Female New Zealand white rabbits. Particulars: mean±standard error. Here is the method:
(3) Measuring Test for Intraocular Pressure in Rabbit
The test compounds were dissolved in 10 mM of phosphate buffer (pH 7.5) (hereinafter, referred to as “vehicle of ophthalmic preparation”), and they were instilled in a given concentration. In addition, the compounds insoluble in that concentration was used as a suspension. Female New Zealand white rabbits (KITAYAMA LABES Co., Ltd.) whose weights were 2.0-4.0 kg were used.
The measurement of the intraocular pressure was carried out using Pneumatonometer (Model 30 Classic, Mentor company) without anesthesia. In addition, before the measurement of the intraocular pressure, the surface anesthesia with 0.4% oxybuprocaine hydrochloride (“Benoxil” 0.4% ophthalmic solution, Santen Pharmaceutical Co., Ltd.) was carried out.
The animals whose intraocular pressure was stable before instillation were selected, and these animals were divided to every 4 animal in each one group, 50 μL of eye drops including each the test compound was administered to one-sided eye and vehicle was administered to contralateral eye as the control eye. The measurement of intraocular pressure was carried out before instillation and after 0.5, 1, 2, 3, 4 and 6 hours from instillation. The effect on the intraocular pressure was shown as the difference from pre-instillation (ΔIOP, mmHg, mean±standard error). The following Tables 14 and 15 show the results of Control Compounds A and B used as 1% suspensions which are the same as in the pharmacological test (1).
The animals were pretreated as mentioned above, and among them animals whose intraocular pressure was stable before instillation were selected, and these animals were divided to every 5 to 8 animal in each one group. Every two group was used for each of the test compounds. The test compound was administered unilaterally to the eye of the test group rabbit and the intraocular pressure was measured. The vehicle was administered unilaterally to the eye of the control group rabbit and the intraocular pressure was measured. As mentioned above, the measurement of intraocular pressure was carried out before instillation and after 0.5, 1, 2, 3, 4 and 6 hours from instillation, and the effect on the intraocular pressure was shown as the difference from pre-instillation (ΔIOP, mmHg, mean±standard error).

The mark [3] stands for this setting: 0.03% ophthalmic solution, rabbit, instillation, 0.5 hr after instillation, difference from pre-instillation.
The mark [4] stands for this setting: 0.03% ophthalmic solution, rabbit, instillation, 1 hr after instillation, difference from pre-instillation.
Setting [5] is: 0.03% ophthalmic solution, rabbit, instillation, 2 hr after instillation, difference from pre-instillation.
The mark [6] stands for this setting: 0.03% ophthalmic solution, rabbit, instillation, 3 hr after instillation, difference from pre-instillation.
Setting [7] is: 0.03% ophthalmic solution, rabbit, instillation, 4 hr after instillation, difference from pre-instillation.
The mark [8] stands for this setting: 0.03% ophthalmic solution, rabbit, instillation, 6 hr after instillation, difference from pre-instillation.

T1 sequence (P29274 whole entry): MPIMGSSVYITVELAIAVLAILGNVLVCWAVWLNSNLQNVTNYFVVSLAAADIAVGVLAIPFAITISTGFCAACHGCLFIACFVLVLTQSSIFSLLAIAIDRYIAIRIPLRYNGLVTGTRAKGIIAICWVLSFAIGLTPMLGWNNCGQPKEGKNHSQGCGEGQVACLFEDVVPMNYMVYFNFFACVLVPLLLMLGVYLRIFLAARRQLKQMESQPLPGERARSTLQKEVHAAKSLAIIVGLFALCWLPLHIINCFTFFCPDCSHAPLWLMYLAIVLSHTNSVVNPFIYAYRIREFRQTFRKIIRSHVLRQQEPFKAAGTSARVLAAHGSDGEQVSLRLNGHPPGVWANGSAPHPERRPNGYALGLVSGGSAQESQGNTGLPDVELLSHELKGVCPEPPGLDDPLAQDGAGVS

One may read the EC50 as the concentration needed to bring the measured effect to its halfway point. In the case of `CC(=O)Nc1ccc(-c2nc(SCc3cccc(CCC(=O)N(C)C4CCN(C)CC4)n3)nc(N)c2C#N)cc1.Cl` [Example 67, 3-{6-[4-(4-acetylaminophenyl)-6-amino-5-cyanopyrimidin-2-ylsulfanylmethyl]pyridin-2-yl}-N-methyl-N-(1-methylpiperidin-4-yl)propionamide hydrochloride], in experiment [1], the EC50 came to 6.8 nM. Moreover, the “ΔIOP (mmHg)” value in experiment [2] (setting [3]) is on record as −1.1 ± 1.0 mmHg; in experiment [2] (setting [4]), −5.3 ± 0.7 mmHg; in experiment [2] (setting [5]) it was −4.6 ± 0.7 mmHg; in experiment [2] (setting [6]), −4.6 ± 0.9 mmHg; in experiment [2] (setting [7]) it was −4.2 ± 0.7 mmHg; in experiment [2] (setting [8]), −2.0 ± 0.7 mmHg.

Regarding `CC(=O)Nc1ccc(-c2nc(SCc3cccc(CCC(=O)N4CCC(N5CCCCC5)CC4)n3)nc(N)c2C#N)cc1.Cl` [Example 69, N-(4-{6-amino-2-[6-(3-[1,4′]bipiperidinyl-1′-yl-3-oxopropyl)pyridin-2-ylmethylsulfanyl]-5-cyanopyrimidin-4-yl}phenyl)acetamide hydrochloride], the EC50 in experiment [1] came out at 7 nM. Moreover, the “ΔIOP (mmHg)” value in experiment [2] (0.01% ophthalmic solution, test group, 0.5 hr) is listed as −1.5 ± 1.0 mmHg; in experiment [2] (0.01% ophthalmic solution, test group, 1 hr), −4.9 ± 0.7 mmHg; in experiment [2] (0.01% ophthalmic solution, test group, 2 hr), −3.6 ± 0.4 mmHg; in experiment [2] (0.01% ophthalmic solution, test group, 3 hr), −3.8 ± 0.7 mmHg; in experiment [2] (0.01% ophthalmic solution, test group, 4 hr) it was −2.6 ± 1.0 mmHg; in experiment [2] (0.01% ophthalmic solution, test group, 6 hr), 0.5 ± 0.9 mmHg.

Consider `CCN1CCN(CC2CN(C(=O)CCc3cccc(CSc4nc(N)c(C#N)c(-c5ccc(NC(C)=O)cc5)n4)n3)CCO2)CC1.Cl` (centres unmarked) [Example 72, N-{4-[6-amino-5-cyano-2-(6-{3-[2-(4-ethyl-piperazin-1-ylmethyl)morpholin-4-yl]-3-oxopropyl}pyridin-2-ylmethylsulfanyl)pyrimidin-4-yl]phenyl}acetamide hydrochloride], for which the EC50 in experiment [1] worked out at 13.6 nM. The “ΔIOP (mmHg)” value in experiment [2] (setting [3]) is listed as −1.9 ± 0.6 mmHg; in experiment [2] (setting [4]) it was −5.3 ± 0.6 mmHg; in experiment [2] (setting [5]), −4.7 ± 0.6 mmHg; in experiment [2] (setting [6]), −5.0 ± 0.7 mmHg; in experiment [2] (setting [7]), −4.0 ± 1.0 mmHg; in experiment [2] (setting [8]) it was −1.9 ± 0.9 mmHg.

For the molecule `CC(=O)Nc1ccc(-c2nc(SCc3cccc(CCC(=O)N4CCN(CCN5CCOCC5)CC4)n3)nc(N)c2C#N)cc1.Cl` [Example 78, N-{4-[6-amino-5-cyano-2-(6-{3-[4-(2-morpholin-4-ylethyl)piperazin-1-yl]-3-oxopropyl}pyridin-2-ylmethylsulfanyl)pyrimidin-4-yl]phenyl}acetamide hydrochloride], in experiment [1], the EC50 stood at 6 nM. Besides, the “ΔIOP (mmHg)” value in experiment [2] (setting [3]) is given as 0.6 ± 0.5 mmHg; in experiment [2] (setting [4]), −3.3 ± 0.4 mmHg; in experiment [2] (setting [5]), −4.4 ± 0.6 mmHg; in experiment [2] (setting [6]), −4.3 ± 0.9 mmHg; in experiment [2] (setting [7]), −5.4 ± 0.7 mmHg; in experiment [2] (setting [8]) it was −3.2 ± 0.9 mmHg.

For the molecule `CC(=O)Nc1ccc(-c2nc(SCc3cccc(CCC(=O)N4CCCN(C)CC4)n3)nc(N)c2C#N)cc1.Cl` [Example 80, N-[4-(6-amino-5-cyano-2-{6-[3-(4-methyl-[1,4]diazepan-1-yl)-3-oxopropyl]pyridin-2-ylmethyl-sulfanyl}pyrimidin-4-yl)phenyl]acetamide hydrochloride], the half-maximal effective concentration (EC50) in experiment [1] is 2.4 nM. Also, the “ΔIOP (mmHg)” value in experiment [2] (setting [3]) is reported as −0.9 ± 1.3 mmHg; in experiment [2] (setting [4]), −5.0 ± 1.0 mmHg; in experiment [2] (setting [5]) it was −5.9 ± 0.7 mmHg; in experiment [2] (setting [6]), −4.9 ± 0.5 mmHg; in experiment [2] (setting [7]), −5.0 ± 0.8 mmHg; in experiment [2] (setting [8]) it was −1.8 ± 0.8 mmHg.
